Experiments:
hM2 receptor = target: T1, hM2 receptor (Homo sapiens, UniProt P08172); test: Blockade of agonist-mediated inhibition of cAMP accumulation; type: cell-based; conditions: CHO-K1 cells expressing the hM2 receptor; read-out: Ki value for blockade of oxotremorine-inhibition of forskolin-mediated cAMP accumulation
T1 construct: expressed in transfected cells; host or cells: CHO-K1 cells
T1 sequence (P08172 1-466): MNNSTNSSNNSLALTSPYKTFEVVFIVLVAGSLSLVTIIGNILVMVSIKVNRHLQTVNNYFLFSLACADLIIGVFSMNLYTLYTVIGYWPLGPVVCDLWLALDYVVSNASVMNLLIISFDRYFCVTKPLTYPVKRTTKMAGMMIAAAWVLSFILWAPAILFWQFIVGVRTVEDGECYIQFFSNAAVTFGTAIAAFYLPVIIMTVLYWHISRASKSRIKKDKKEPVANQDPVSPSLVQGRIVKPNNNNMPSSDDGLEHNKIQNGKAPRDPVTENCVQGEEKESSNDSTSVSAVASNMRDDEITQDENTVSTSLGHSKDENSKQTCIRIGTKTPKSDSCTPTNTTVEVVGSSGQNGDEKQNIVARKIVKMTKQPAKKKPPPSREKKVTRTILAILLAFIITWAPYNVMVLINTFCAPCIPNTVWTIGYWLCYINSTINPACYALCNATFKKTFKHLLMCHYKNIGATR
Experimental: A. Blockade of Agonist-Mediated Inhibition of cAMP Accumulation
In this assay, the functional potency of a test compound was determined by measuring the ability of the test compound to block oxotremorine-inhibition of forskolin-mediated cAMP accumulation in CHO-K1 cells expressing the hM2 receptor.
cAMP assays were performed in a radioimmunoassay format using the Flashplate Adenylyl Cyclase Activation Assay System with ^125I-cAMP (NEN SMP004B, PerkinElmer Life Sciences Inc., Boston, Mass.), according to the manufacturer's instructions.
Cells were rinsed once with dPBS and lifted with Trypsin-EDTA solution (0.05% trypsin/0.53 mM EDTA) as described in the Cell Culture and Membrane Preparation section above. […] The cell pellet was then re-suspended in 10 mL dPBS, and the cells were counted with a Coulter Z1 Dual Particle Counter (Beckman Coulter, Fullerton, Calif.). […]
Reactions were incubated for 10 minutes at 37° C. and stopped by addition of 100 μL ice-cold detection buffer. Plates were sealed, incubated overnight at room temperature and counted the next morning on a PerkinElmer TopCount liquid scintillation counter (PerkinElmer Inc., Wellesley, Mass.). The amount of cAMP produced (pmol/well) was calculated based on the counts observed for the samples and cAMP standards, as described in the manufacturer's user manual. […]

[1] = test system: ACh-induced bronchoconstriction; test: Duration of bronchoprotection in guinea pig model of acetylcholine-induced bronchoconstriction; type: in vivo; conditions: inhalation, 1.5 hours post-dose
Experimental: Determination of Duration of Bronchoprotection in Guinea Pig Model of Acetylcholine-Induced Bronchoconstriction
Groups of six male guinea pigs (Duncan-Hartley (HsdPoc:DH) Harlan, Madison, Wis.) weighing between 250 and 350 g were individually identified by cage cards. Throughout the study animals were allowed access to food and water ad libitum.
Test compounds were administered via inhalation over 10 minutes in a whole-body exposure dosing chamber (R&S Molds, San Carlos, Calif.). The dosing chambers were arranged so that an aerosol was simultaneously delivered to 6 individual chambers from a central manifold. Guinea pigs were exposed to an aerosol of a test compound or vehicle (WFI). […] This was measured gravimetrically by comparing pre- and post-nebulization weights of the filled nebulizer.
The bronchoprotective effects of test compounds administered via inhalation were evaluated using whole body plethysmography at 1.5, 24, 48 and 72 hours post-dose.
Forty-five minutes prior to the start of the pulmonary evaluation, each guinea pig was anesthetized with an intramuscular injection of ketamine (43.75 mg/kg), xylazine (3.50 mg/kg) and acepromazine (1.05 mg/kg). […] The depth of anesthesia was monitored and adjusted if the animal responded to pinching of its paw or if the respiration rate was greater than 100 breaths/minute. […]

- Ki (hM2 receptor): < 10 nM
SMILES: CN(CCN1CCC(OC(=O)Nc2ccccc2-c2ccccc2)CC1)C(=O)CCCCCNCCc1ccc(O)cc1 [Example 1, Biphenyl-2-ylcarbamic Acid 1-[2-({6-[2-(4-Hydroxyphenyl)ethylamino]hexanoyl}methylamino)ethyl]piperidin-4-yl Ester]
- PD2(50) for ACh-induced bronchoconstriction [1]: less than 200 μg/mL
